# From patent US20220395496A1 (Hoffmann-La Roche Inc., priority 2019, published 2022)
# Target: T1, human TLR7 (Homo sapiens, UniProt Q9NYK1)
# T1 sequence (Q9NYK1 27-1049): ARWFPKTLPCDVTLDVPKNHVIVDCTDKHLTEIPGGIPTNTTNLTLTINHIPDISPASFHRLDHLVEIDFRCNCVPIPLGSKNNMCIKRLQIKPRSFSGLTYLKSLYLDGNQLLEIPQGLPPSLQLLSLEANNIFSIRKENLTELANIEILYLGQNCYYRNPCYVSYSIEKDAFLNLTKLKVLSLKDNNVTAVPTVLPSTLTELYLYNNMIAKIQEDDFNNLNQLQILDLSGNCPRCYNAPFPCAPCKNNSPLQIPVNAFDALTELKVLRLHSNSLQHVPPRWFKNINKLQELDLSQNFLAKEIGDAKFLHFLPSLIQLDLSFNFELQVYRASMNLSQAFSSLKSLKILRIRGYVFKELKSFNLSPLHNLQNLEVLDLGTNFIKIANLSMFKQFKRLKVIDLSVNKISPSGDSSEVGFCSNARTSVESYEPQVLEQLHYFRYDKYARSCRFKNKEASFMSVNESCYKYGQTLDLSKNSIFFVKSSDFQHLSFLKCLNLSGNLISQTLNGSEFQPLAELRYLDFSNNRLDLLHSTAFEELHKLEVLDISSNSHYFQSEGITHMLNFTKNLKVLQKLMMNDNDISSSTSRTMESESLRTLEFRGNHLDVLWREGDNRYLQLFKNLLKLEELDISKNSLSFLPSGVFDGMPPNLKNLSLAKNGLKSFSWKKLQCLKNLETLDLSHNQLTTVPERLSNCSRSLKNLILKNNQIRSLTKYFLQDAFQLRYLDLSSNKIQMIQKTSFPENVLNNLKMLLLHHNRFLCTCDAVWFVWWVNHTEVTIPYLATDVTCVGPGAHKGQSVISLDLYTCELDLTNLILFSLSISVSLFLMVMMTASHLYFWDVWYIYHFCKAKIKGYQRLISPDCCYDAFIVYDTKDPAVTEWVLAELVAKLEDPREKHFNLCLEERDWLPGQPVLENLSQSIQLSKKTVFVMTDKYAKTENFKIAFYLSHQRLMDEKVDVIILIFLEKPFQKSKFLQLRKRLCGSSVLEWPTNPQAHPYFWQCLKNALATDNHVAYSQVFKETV
# Assay: HEK293-Blue-hTLR-7 cells assay (SEAP reporter, R848 stimulation)
# Assay type: cell-based
# Conditions: HEK293-Blue-hTLR7 cells, R848, 20 hrs; lowest tested concentration 0.0032
# Description: The following tests were carried out in order to determine the activity of the compounds of this invention in HEK293-Blue-hTLR-7/8/9 cells assay.
# HEK293-Blue-hTLR-7 Cells Assay:
# A stable HEK293-Blue-hTLR-7 cell line was purchased from InvivoGen (Cat. #: hkb-htlr7, San Diego, Calif., USA). These cells were originally designed for studying the stimulation of human TLR7 by monitoring the activation of NF-κB. A SEAP (secreted embryonic alkaline phosphatase) reporter gene was placed under the control of the IFN-β minimal promoter fused to five NF-κB and AP-1-binding sites. The SEAP was induced by activating NF-κB and AP-1 via stimulating HEK-Blue hTLR7 cells with TLR7 ligands. Therefore the reporter expression was declined by TLR7 antagonist under the stimulation of a ligand, such as R848 (Resiquimod), for incubation of 20 hrs. The cell culture supernatant SEAP reporter activity was determined using QUANTI-Blue™ kit (Cat. #: rep-qb1, Invivogen, San Diego, Calif., USA) at a wavelength of 640 nm, a detection medium that turns purple or blue in the presence of alkaline phosphatase.
# HEK293-Blue-hTLR7 cells were incubated at a density of 250,000˜450,000 cells/mL in a volume of 170 μL in a 96-well plate in Dulbecco's Modified Eagle's medium (DMEM) containing 4.5 g/L glucose, 50 U/mL penicillin, […], […], 2 mM L-glutamine, 10% (v/v) heat-inactivated fetal bovine serum with addition of 20 μL test compound in a serial dilution in the presence of final DMSO at 1% and 10 μL of 20 uM R848 in above DMEM, perform incubation under 37° C. in a CO2 incubator for 20 hrs. Then 20 μL of the supernatant from each well was incubated with 180 μL Quanti-blue substrate solution at 37° C. for 2 hrs and the absorbance was read at 620-655 nm using a spectrophotometer. The signalling pathway that TLR7 activation leads to downstream NF-κB activation has been widely accepted, and therefore similar reporter assay was modified for evaluating TLR7 antagonist.
row,IC50 [µM],SMILES
1,0.052,"C[C@H]1C[C@@H](N2CCc3cc(N4CCNCC4)ccc3C2)CN(c2ccc(C#N)c3ncccc23)C1 (relative stereo) [Example 24, 5-[cis-3-methyl-5-(6-piperazin-1-yl-3,4-dihydro-1H-isoquinolin-2-yl)-1-piperidyl]quinoline-8-carbonitrile]"
2,0.016,"C[C@H]1C[C@@H](NCc2ccc(N3CCNCC3)cc2)CN(c2ccc(C#N)c3ncccc23)C1 [Example 1, 5-[(3S,5R)-3-methyl-5-[(4-piperazin-1-ylphenyl)methylamino]1-piperidyl]quinoline-8-carbonitrile]"
3,0.032,"C[C@H]1C[C@@H](NCc2ccc(C3CCNCC3)cc2)CN(c2ccc(C#N)c3ncccc23)C1 [Example 2, 5-[(3S,5R)-3-methyl-5-[[4-(4-piperidyl)phenyl]methylamino]-1-piperidyl]quinoline-8-carbonitrile]"
4,0.03,"C[C@H]1C[C@@H](NCc2ccc(N3CCNCC3)cc2)CN(c2ccc(C#N)c3nccnc23)C1 [Example 3, 8-[(3S,5R)-3-methyl-5-[(4-piperazin-1-ylphenyl)methylamino]-1-piperidyl]quinoxaline-5-carbonitrile]"
5,0.013,"C[C@H]1C[C@@H](NCc2ccc(N3CCNCC3)cc2F)CN(c2ccc(C#N)c3ncccc23)C1 [Example 4, 5-[(3R,58)-3-[(2-fluoro-4-piperazin-1-yl-phenyl)methylamino]-5-methyl-1-piperidyl]quinoline-8-carbonitrile]"
6,0.017,"C[C@H]1C[C@@H](NCc2ccc(N3CCNCC3)cn2)CN(c2ccc(C#N)c3ncccc23)C1 [Example 5, 5-[(3S,5R)-3-methyl-5-[(5-piperazin-1-yl-2-pyridyl)methylamino]-1-piperidyl]quinoline-8-carbonitrile]"
7,0.042,"C[C@H]1C[C@@H](NCc2cccc(N3CCN(C)CC3)c2)CN(c2ccc(C#N)c3ncccc23)C1 [Example 6, 5-[(3S,5R)-3-methyl-5-[[3-(4-methylpiperazin-1-yl)phenyl]methylamino]-1-piperidyl]quinoline-8-carbonitrile]"
8,0.016,"C[C@H]1C[C@@H](NCc2ccc(N3CCN(C)CC3)cc2)CN(c2ccc(C#N)c3ncccc23)C1 [Example 7, 5-[(3S,5R)-3-methyl-5-[[4-(4-methylpiperazin-1-yl)phenyl]methylamino]-1-piperidyl]quinoline-8-carbonitrile]"
9,0.039,"C[C@H]1C[C@@H](NCc2cccc(N3CCNCC3)c2)CN(c2ccc(C#N)c3ncccc23)C1 [Example 8, 5-[(3S,5R)-3-methyl-5-[(3-piperazin-1-ylphenyl)methylamino]-1-piperidyl]quinoline-8-carbonitrile]"
10,0.015,"C[C@H]1C[C@@H](N(C)Cc2ccc(N3CCNCC3)cc2)CN(c2ccc(C#N)c3ncccc23)C1 [Example 9, 5-[(3S,5R)-3-methyl-5-[methyl-[(4-piperazin-1-ylphenyl)methyl]amino]-1-piperidyl]quinoline-8-carbonitrile]"
11,0.007,C[C@H]1C[C@@H](NCc2ccc(N3CCNCC3)nc2)CN(c2ccc(C#N)c3ncccc23)C1 [Example 10]
12,0.015,"C[C@H]1C[C@@H](NCc2ccc3c(c2)CCNC3)CN(c2ccc(C#N)c3ncccc23)C1 [Example 11, 5-[(3S,5R)-3-methyl-5-(1,2,3,4-tetrahydroisoquinolin-6-ylmethylamino)-1-piperidyl]quinoline-8-carbonitrile]"
13,0.007,"C[C@H]1C[C@@H](N2Cc3ccc(N4CCNCC4)cc3C2)CN(c2ccc(C#N)c3ncccc23)C1 [Example 12, 5-[(3S,5R)-3-methyl-5-(5-piperazin-1-ylisoindolin-2-yl)-1-piperidyl]quinoline-8-carbonitrile]"
14,0.019,"C[C@H]1C[C@@H](NCc2ccc(N3CCC(N)C3)cc2)CN(c2ccc(C#N)c3ncccc23)C1 (stereo partly drawn) [Example 13, 5-[(3R,5S)-3-[[4-(3-aminopyrrolidin-1-yl)phenyl]methylamino]-5-methyl-1-piperidyl]quinoline-8-carbonitrile]"
15,0.084,"Cc1cc(-c2ccc(CN[C@@H]3C[C@H](C)CN(c4ccc(C#N)c5ncccc45)C3)cc2)cc(C)n1 [Example 15, 5-[(3R,5S)-3-[[4-(2,6-dimethyl-4-pyridyl)phenyl]methylamino]-5-methyl-1-piperidyl]quinoline-8-carbonitrile]"
16,0.011,"C[C@H]1C[C@@H](NCc2cnc(N3CCN(C)CC3)nc2)CN(c2ccc(C#N)c3ncccc23)C1 [Example 16, 5-[(3S,5R)-3-methyl-5-[[2-(4-methylpiperazin-1-yl)pyrimidin-5-yl]methylamino]-1-piperidyl]quinoline-8-carbonitrile]"
17,0.007,"C[C@H]1C[C@@H](NCc2cnc(N3CCNCC3)nc2)CN(c2ccc(C#N)c3ncccc23)C1 [Example 17, 5-[(3S,5R)-3-methyl-5-[(2-piperazin-1-ylpyrimidin-5-yl)methylamino]-1-piperidyl]quinoline-8-carbonitrile]"
18,0.011,"C[C@H]1C[C@@H](NCc2ccc(N3CCN(C)CC3)cn2)CN(c2ccc(C#N)c3ncsc23)C1 [Example 18, 7-[(3S,5R)-3-methyl-5-[[5-(4-methylpiperazin-1-yl)-2-pyridyl]methylamino]-1-piperidyl]-1,3-benzothiazole-4-carbonitrile]"
19,0.063,"C[C@H]1C[C@@H](NCc2ccc(N3CCNCC3)cc2)CN(c2ccc(C#N)n3nccc23)C1 [Example 21, 4-[(3S,5R)-3-methyl-5-[(4-piperazin-1-ylphenyl)methylamino]-1-piperidyl]pyrazolo[1,5-a]pyridine-7-carbonitrile]"
20,0.023,"C[C@H]1C[C@@H](NCc2ccc(N3CCNCC3)cc2)CN(c2ccc(Cl)c3ncccc23)C1 [Example 22, (3R,5S)-1-(8-chloro-5-quinolyl)-5-methyl-N-[(4-piperazin-1-ylphenyl)methyl]piperidin-3-amine]"
21,0.023,"C[C@H]1C[C@@H](N2Cc3cc(N4CCNCC4)cnc3C2)CN(c2ccc(C#N)c3ncccc23)C1 [Example 23, 5-[(3S,5R)-3-methyl-5-(3-piperazin-1-yl-5,7-dihydropyrrolo[3,4-b]pyridin-6-yl)-1-piperidyl]quinoline-8-carbonitrile]"
22,0.015,"C[C@H]1C[C@@H](NCc2ncc(N3CCNCC3)cn2)CN(c2ccc(C#N)c3ncccc23)C1 [Example 25, 5-[(3S,5R)-3-methyl-5-[(5-piperazin-1-ylpyrimidin-2-yl)methylamino]-1-piperidyl]quinoline-8-carbonitrile]"
23,0.091,"CC(N[C@@H]1C[C@H](C)CN(c2ccc(C#N)c3ncccc23)C1)c1ccc(N2CCNCC2)cc1 (stereo partly drawn) [Example 26, 5-[(3S,5R)-3-methyl-5-[1-(4-piperazin-1-ylphenyl)ethylamino]-1-piperidyl]quinoline-8-carbonitrile]"
24,0.012,"C[C@H]1C[C@@H](NCc2cnc(N3CCN[C@H](C)C3)nc2)CN(c2ccc(C#N)c3ncccc23)C1 [Example 28, 5-[(3S,5R)-3-methyl-5-[[2-[(3R)-3-methylpiperazin-1-yl]pyrimidin-5-yl]methylamino]-1-piperidyl]quinoline-8-carbonitrile]"
